Experiments:
late watergrass = assay: Test Example 1: herbicidal activity, application before weed generation under submerged conditions (Table 16, symbol A); assay type: in vivo, late watergrass (Echinochloa oryzicola); conditions: 320 g/ha applied herbicide
Excerpt: (§1) [Test Example 1] Herbicidal Activity Test by Application before Weed Generation under Submerged Conditions After alluvial soil was placed into 1/10000 are of Wagner pot, water was poured and mixed to form a submerged condition having a water depth of 4 cm. Seeds of late watergrass, Japanese bulrush, and oval-leafed pondweed were sowed in a mixed manner in the aforementioned pot, and then 2.5 leaf stage rice plant seedlings were transplanted thereto. On the day of sowing seeds, the emulsion agent of the compound of the present invention prepared according to Formulation Example 2 was diluted with water so as to achieve a predetermined herbicide amount, and the diluted emulsion agent was applied to the surface of the water. The pot was placed in a greenhouse at 25° C. to 30° C. for growth of the plants. Three weeks after the herbicide application, the effect of the herbicide on each plant was evaluated according to the following criteria. Evaluation Criteria 5: Herbicidal rate of 90% or more (almost completely withered) 4: Herbicidal rate of 70% or more and less than 90% 3: Herbicidal rate of 40% or more and less than 70% 2: Herbicidal rate of 20% or more and less than 40% 1: Herbicidal rate of 5% or more and less than 20% 0: Herbicidal rate of 5% or less (almost no effect)

Japanese bulrush = assay: Test Example 1: herbicidal activity, application before weed generation under submerged conditions (Table 16, symbol B); assay type: in vivo, Japanese bulrush (Schoenoplectus juncoides); conditions: 320 g/ha applied herbicide
Excerpt: as §1

oval-leafed pondweed = assay: Test Example 1: herbicidal activity, application before weed generation under submerged conditions (Table 16, symbol C); assay type: in vivo, oval-leafed pondweed (Monochoria vaginalis); conditions: 320 g/ha applied herbicide
Excerpt: as §1

barnyard grass = assay: Test Example 3: herbicidal effect by foliage application, Wagner pot (Table 18, symbol H); assay type: in vivo, barnyard grass (Echinochloa crus-galli); conditions: amount of applied herbicide 320 g/ha
In short: (§2)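 Plants were sown in alluvial soil held under 0.1–0.5 cm standing water and grown 14 days in a greenhouse at 25–30 °C. An emulsifiable formulation, water-diluted to the set dose, was then sprayed onto the foliage, and effects were scored three weeks later using previously defined criteria.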

Chinese sprangletop = assay: Test Example 3: herbicidal effect by foliage application, Wagner pot (Table 18, symbol D); assay type: in vivo, chinese sprangletop (Leptochloa chinensis); conditions: amount of applied herbicide 320 g/ha
In short: as §2

rice flat sedge = assay: Test Example 3: herbicidal effect by foliage application, Wagner pot (Table 18, symbol E); assay type: in vivo, rice flat sedge (Cyperus iria); conditions: amount of applied herbicide 320 g/ha
In short: as §2

| Structure (SMILES) | Herbicidal effect on A: late watergrass (grade 0-5) (late watergrass) | Herbicidal effect on B: Japanese bulrush (grade 0-5) (Japanese bulrush) | Herbicidal effect on C: oval-leafed pondweed (grade 0-5) (oval-leafed pondweed) | herbicidal effect on H: barnyard grass (barnyard grass) | herbicidal effect on D: Chinese sprangletop (Chinese sprangletop) | herbicidal effect on E: rice flat sedge (rice flat sedge) |
| --- | --- | --- | --- | --- | --- | --- |
| CC[S+]([O-])Cc1ccc(-c2sc3ccc(F)cc3c2-c2c(O)c(C)nn(C)c2=O)cc1 (stereo not drawn) [2-333] | 2 (Herbicidal rate of 20% or more and less than 40%) | 0 (Herbicidal rate of 5% or less (almost no effect)) | 0 (Herbicidal rate of 5% or less (almost no effect)) | 5 (Herbicidal rate of 90% or more (almost completely withered)) | 2 (Herbicidal rate of 20% or more and less than 40%) | 5 (Herbicidal rate of 90% or more (almost completely withered)) |
| CCS(=O)(=O)Cc1ccc(-c2sc3ccc(F)cc3c2-c2c(O)c(C)nn(C)c2=O)cc1 [2-335] | 3 (Herbicidal rate of 40% or more and less than 70%) | 0 (Herbicidal rate of 5% or less (almost no effect)) | 0 (Herbicidal rate of 5% or less (almost no effect)) | 5 (Herbicidal rate of 90% or more (almost completely withered)) | 3 (Herbicidal rate of 40% or more and less than 70%) | 5 (Herbicidal rate of 90% or more (almost completely withered)) |

From US20230085307A1, “PYRIDAZINONE COMPOUND AND HERBICIDE” (NISSAN CHEMICAL CORPORATION, priority 2019, published 2023)
